US10023566B2, “Dasatinib salts” (EGIS GYOGYSZERGYAR ZRT, priority 2014, dated 2018)
Where a name gives a salt, the structure may show the parent alone.

Experiments:
Type in all cases: physicochemical
[1] = Determination of the solubility of dasatinib salts (shake flask 37° C., HPLC); details: 6 hour shaking, 18 hour sedimentation
Experimental: Considering the above mentioned facts our solubility measurements were carried out on three different pH values (pH 1, pH 4.5 and pH 6.8).
Determination of the Solubility of Dasatinib Salts (Measurement Conditions)
Preparation of Sample Mixture:
• 100 mg of dasatinib salt are weighed in a 20 ml Erlenmeyer flask whereupon 10 ml of medium are added and it is shaked for 6 hours at a temperature of 37° C. on 100 rpm. After sedimentation for 18 hours at a temperature of 37° C. the settled solution is filtered through a sieve with 0.45 μm pores and the solution is diluted up to 20 ml with medium.

[2] = Storage stability test: quantity of impurities by HPLC and change thereof; details: for stability in the storage tests (in words): storage tests carried out under various conditions, thermal stress and forced stability tests
From the text: In course of the thermal stress test and the forced stability test the decompositions in a pharmaceutical composition occurring during storage are constructed essentially in an accelerated manner. […] The advantageous properties of the new dasatinib salts of the present invention are significant from the point of view of the formulation of pharmaceutical compositions, the storage and the minimization of the harmful effects exerted in the human body.
The stability of the new dasatinib salts of the present invention were subjected to detailed tests.
Our results regarding the quantity of the impurities and change thereof are shown in the tables below (expressed in percentage).
Measuring conditions are the same as the determination of purity profile below.
Determination of the Impurities of Dasatinib Salts by HPLC (Measurement Conditions)

[3] = Water adsorption, DVS (dynamic vapor sorption) analysis; details: after drying
From the text: As it is disclosed in WO2007/035874 paragraph [0096] dasatinib mono HCl includes a cavity or channel, which may be partially or fully occupied by solvent or a mixture of solvent. […] Further salts disclosed in the prior art also contain solvent adsorbed on the surface or in the form of solvate. These forms are nor suitable for pharmaceutical application. […] Therefore we carried out our comparative experiments between dasatinib base monohydrate and the new salts of the present invention.

[4] = 3 week, 40° C./70% RH, listed as Anhydrous dasatinib p-toluenesulfonic acid (1:1) salt Form I

## Cc1nc(Nc2ncc(C(=O)Nc3c(C)cccc3Cl)s2)cc(N2CCN(CCO)CC2)n1 [Dasatinib monohydrate, N-(2-Chloro-6-methylphenyl)-2-[6-[4-(2-hydroxyethyl)piperazin-1-yl]-2-methylpyrimidin-4-ylamino]-1,3-thiazole-5-carboxamide, reference compound]
[1]; 0.1M HCl (pH 1)
  solubility: 5.757 mg/mL
[1]; pH = 4.5 phosphate buffer
  solubility: 0.555 mg/mL
[1]; pH = 6.8 phosphate buffer
  solubility: 0.156 mg/mL
[2]; 3 week, 25° C./90% RH
  Impurity Dasatinib N-oxyde (RT 12.2-12.4): 0.03%
  Impurity Dasatinib imp 2 (RT 5.2): 0.11%
  Impurity Dasatinib imp 3 (RT 18.9): 0.04%
  Impurity Deshydroxyethyl dasatinib (RT 11.0): 0.12%
  Impurity Ethylene-diamine intermedier (RT 9.0-9.3): 0.06%
  Impurity Summary (%): 0.43%
  Impurity, unnamed, RT 20.3: 0.07%
[2]; 3 week, 40° C./70% RH
  Impurity Dasatinib N-oxyde (RT 12.2-12.4): 0.03%
  Impurity Dasatinib imp 2 (RT 5.2): 0.10%
  Impurity Dasatinib imp 3 (RT 18.9): 0.03%
  Impurity Deshydroxyethyl dasatinib (RT 11.0): 0.12%
  Impurity Ethylene-diamine intermedier (RT 9.0-9.3): 0.08%
  Impurity Summary (%): 0.43%
  Impurity, unnamed, RT 20.3: 0.07%
[2]; 6 week, 25° C./90% RH
  Impurity Dasatinib imp 2 (RT 5.2): 0.10%
  Impurity Dasatinib imp 3 (RT 18.9): 0.04%
  Impurity Deshydroxyethyl dasatinib (RT 11.0): 0.12%
  Impurity Ethylene-diamine intermedier (RT 9.0-9.3): 0.03%
  Impurity Summary (%): 0.39%
  Impurity, unnamed, RT 19.6: 0.02%
  Impurity, unnamed, RT 20.3: 0.08%
[2]; 6 week, 40° C./70% RH
  Impurity Dasatinib N-oxyde (RT 12.2-12.4): 0.02%
  Impurity Dasatinib imp 2 (RT 5.2): 0.11%
  Impurity Dasatinib imp 3 (RT 18.9): 0.04%
  Impurity Deshydroxyethyl dasatinib (RT 11.0): 0.12%
  Impurity Ethylene-diamine intermedier (RT 9.0-9.3): 0.03%
  Impurity Summary (%): 0.41%
  Impurity, unnamed, RT 19.6: 0.02%
  Impurity, unnamed, RT 20.3: 0.07%
[2]; starting sample
  Impurity Dasatinib N-oxyde (RT 12.2-12.4): 0.02%
  Impurity Dasatinib imp 2 (RT 5.2): 0.11%
  Impurity Dasatinib imp 3 (RT 18.9): 0.04%
  Impurity Deshydroxyethyl dasatinib (RT 11.0): 0.12%
  Impurity Ethylene-diamine intermedier (RT 9.0-9.3): 0.03%
  Impurity Summary (%): 0.38%
  Impurity, unnamed, RT 20.3: 0.08%
[2]; listed as dasatinib base monohydrate
  stability in the storage tests (in words): most stable and suitable form disclosed in the prior art

## Cc1nc(Nc2ncc(C(=O)Nc3c(C)cccc3Cl)s2)cc(N2CCN(CCO)CC2)n1 [dasatinib cyclamic acid (1:1) salt Form II] [N-(2-Chloro-6-methylphenyl)-2-[6-[4-(2-hydroxyethyl)piperazin-1-yl]-2-methylpyrimidin-4-ylamino]-1,3-thiazole-5-carboxamide]
[1]; 0.1M HCl (pH 1)
  solubility: 8.862 mg/mL
[1]; pH = 4.5 phosphate buffer
  solubility: 4.544 mg/mL
[2]; 3 week, 25° C./90% RH
  Impurity Dasatinib N-oxyde (RT 12.2-12.4): 0.04%
  Impurity Deshydroxyethyl dasatinib (RT 11.0): 0.04%
  Impurity Ethylene-diamine intermedier (RT 9.0-9.3): 0.03%
  Impurity Summary (%): 0.11%
[2]; 3 week, 40° C./70% RH
  Impurity Deshydroxyethyl dasatinib (RT 11.0): 0.04%
  Impurity Ethylene-diamine intermedier (RT 9.0-9.3): 0.03%
  Impurity Summary (%): 0.07%
[2]; 6 week, 25° C./90% RH
  Impurity Deshydroxyethyl dasatinib (RT 11.0): 0.04%
  Impurity Ethylene-diamine intermedier (RT 9.0-9.3): 0.03%
  Impurity Summary (%): 0.07%
[2]; 6 week, 40° C./70% RH
  Impurity Dasatinib N-oxyde (RT 12.2-12.4): 0.03%
  Impurity Deshydroxyethyl dasatinib (RT 11.0): 0.04%
  Impurity Ethylene-diamine intermedier (RT 9.0-9.3): 0.02%
  Impurity Summary (%): 0.09%
[2]; starting sample
  Impurity Deshydroxyethyl dasatinib (RT 11.0): 0.04%
  Impurity Ethylene-diamine intermedier (RT 9.0-9.3): 0.03%
  Impurity Summary (%): 0.07%
[2]
  stability in the storage tests (in words): particularly stable

## Cc1nc(Nc2ncc(C(=O)Nc3c(C)cccc3Cl)s2)cc(N2CCN(CCO)CC2)n1 [dasatinib cyclamic acid (1:1) salt Form I] [N-(2-Chloro-6-methylphenyl)-2-[6-[4-(2-hydroxyethyl)piperazin-1-yl]-2-methylpyrimidin-4-ylamino]-1,3-thiazole-5-carboxamide]
[1]; 0.1M HCl (pH 1)
  solubility: 8.533 mg/mL
[1]; pH = 4.5 phosphate buffer
  solubility: 6.194 mg/mL
[1]; pH = 6.8 phosphate buffer
  solubility: 0.005 mg/mL
[2]; 3 week, 25° C./90% RH
  Impurity Dasatinib N-oxyde (RT 12.2-12.4): 0.03%
  Impurity Deshydroxyethyl dasatinib (RT 11.0): 0.03%
  Impurity Ethylene-diamine intermedier (RT 9.0-9.3): 0.02%
  Impurity Summary (%): 0.11%
  Impurity, unnamed, RT 15.5: 0.03%
[2]; 3 week, 40° C./70% RH
  Impurity Dasatinib N-oxyde (RT 12.2-12.4): 0.03%
  Impurity Deshydroxyethyl dasatinib (RT 11.0): 0.03%
  Impurity Summary (%): 0.09%
  Impurity, unnamed, RT 15.5: 0.03%
[2]; 6 week, 25° C./90% RH
  Impurity Dasatinib N-oxyde (RT 12.2-12.4): 0.03%
  Impurity Deshydroxyethyl dasatinib (RT 11.0): 0.03%
  Impurity Summary (%): 0.06%
[2]; 6 week, 40° C./70% RH
  Impurity Dasatinib N-oxyde (RT 12.2-12.4): 0.03%
  Impurity Deshydroxyethyl dasatinib (RT 11.0): 0.03%
  Impurity Summary (%): 0.06%
[2]; starting sample
  Impurity Dasatinib N-oxyde (RT 12.2-12.4): 0.03%
  Impurity Deshydroxyethyl dasatinib (RT 11.0): 0.03%
  Impurity Summary (%): 0.09%
  Impurity, unnamed, RT 15.5: 0.03%
[2]
  stability in the storage tests (in words): particularly stable

## Cc1nc(Nc2ncc(C(=O)Nc3c(C)cccc3Cl)s2)cc(N2CCN(CCO)CC2)n1 [dasatinib diHCl salt, N-(2-Chloro-6-methylphenyl)-2-[6-[4-(2-hydroxyethyl)piperazin-1-yl]-2-methylpyrimidin-4-ylamino]-1,3-thiazole-5-carboxamide]
[3]
  water adsorption property (in words): tends to adsorb water

## Cc1nc(Nc2ncc(C(=O)Nc3c(C)cccc3Cl)s2)cc(N2CCN(CCO)CC2)n1 [dasatinib hydrogen bromide (1:2) salt, N-(2-Chloro-6-methylphenyl)-2-[6-[4-(2-hydroxyethyl)piperazin-1-yl]-2-methylpyrimidin-4-ylamino]-1,3-thiazole-5-carboxamide]
[1]; 0.1M HCl (pH 1)
  solubility: 7.994 mg/mL
[1]; pH = 4.5 phosphate buffer
  solubility: 1.056 mg/mL

## Cc1nc(Nc2ncc(C(=O)Nc3c(C)cccc3Cl)s2)cc(N2CCN(CCO)CC2)n1 [dasatinib mesilate (1:2), N-(2-Chloro-6-methylphenyl)-2-[6-[4-(2-hydroxyethyl)piperazin-1-yl]-2-methylpyrimidin-4-ylamino]-1,3-thiazole-5-carboxamide]
[1]; pH = 4.5 phosphate buffer
  solubility: 0.805 mg/mL
[1]; pH = 6.8 phosphate buffer
  solubility: 0.017 mg/mL

## Cc1nc(Nc2ncc(C(=O)Nc3c(C)cccc3Cl)s2)cc(N2CCN(CCO)CC2)n1 [dasatinib mono HCl salt, N-(2-Chloro-6-methylphenyl)-2-[6-[4-(2-hydroxyethyl)piperazin-1-yl]-2-methylpyrimidin-4-ylamino]-1,3-thiazole-5-carboxamide]
[3]
  water adsorption property (in words): changeable, especially after drying

## Cc1nc(Nc2ncc(C(=O)Nc3c(C)cccc3Cl)s2)cc(N2CCN(CCO)CC2)n1 [dasatinib tosilate (1:1) Form I anhydrate] [N-(2-Chloro-6-methylphenyl)-2-[6-[4-(2-hydroxyethyl)piperazin-1-yl]-2-methylpyrimidin-4-ylamino]-1,3-thiazole-5-carboxamide]
[1]; 0.1M HCl (pH 1)
  solubility: 5.365 mg/mL
[1]; pH = 4.5 phosphate buffer
  solubility: 4.510 mg/mL
[2]; 3 week, 25° C./90% RH
  Impurity, unnamed, RT 15.5: 0.03%
[2]; 3 week, 25° C./90% RH, listed as Anhydrous dasatinib p-toluenesulfonic acid (1:1) salt Form I
  Impurity Summary (%): 0.03%
[2]; [4]
  Impurity Ethylene-diamine intermedier (RT 9.0-9.3): 0.03%
  Impurity Summary (%): 0.03%
[2]; starting sample
  Impurity, unnamed, RT 15.5: 0.03%
[2]; starting sample, listed as Anhydrous dasatinib p-toluenesulfonic acid (1:1) salt Form I
  Impurity Summary (%): 0.03%
[2]; listed as anhydrous dasatinib p-toluenesulfonic acid (1:1) salt Form I
  stability in the storage tests (in words): particularly stable

## Cc1nc(Nc2ncc(C(=O)Nc3c(C)cccc3Cl)s2)cc(N2CCN(CCO)CC2)n1 [dasatinib tosilate (1:1) Form II anhydrate] [N-(2-Chloro-6-methylphenyl)-2-[6-[4-(2-hydroxyethyl)piperazin-1-yl]-2-methylpyrimidin-4-ylamino]-1,3-thiazole-5-carboxamide]
[1]; 0.1M HCl (pH 1)
  solubility: 5.702 mg/mL
[1]; pH = 4.5 phosphate buffer
  solubility: 2.805 mg/mL
[1]; pH = 6.8 phosphate buffer
  solubility: 0.011 mg/mL

## Cc1nc(Nc2ncc(C(=O)Nc3c(C)cccc3Cl)s2)cc(N2CCN(CCO)CC2)n1 [dasatinib tosilate (1:1) dihydrate, N-(2-Chloro-6-methylphenyl)-2-[6-[4-(2-hydroxyethyl)piperazin-1-yl]-2-methylpyrimidin-4-ylamino]-1,3-thiazole-5-carboxamide]
[1]; 0.1M HCl (pH 1)
  solubility: 4.898 mg/mL
[1]; pH = 4.5 phosphate buffer
  solubility: 1.641 mg/mL
[1]; pH = 6.8 phosphate buffer
  solubility: 0.010 mg/mL
